This note sets out measurements from patent US10865208B2, “ATG7 inhibitors and the uses thereof” (Millennium Pharmaceuticals, Inc., priority 2016, dated 2020).

The experiment has as its target recombinant human His-ATG7 enzyme (Homo sapiens (Human), UniProt O95352). Briefly: ATG7 Enzyme Assay (HTRF/FRET, ATG3-GST and Flag-Gabarap). In kind it is biochemical. The settings on record: for inhibition at 0.111 µM / inhibition at 0.123 µM: read-out: Percent Inhibition. In outline:
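HTRF read-out after 2 h at 24° C, using Eu-cryptate anti-Flag and XL-APC anti-GST antibodies in an EDTA stop buffer. The preceding 105 min, 24° C reaction (pH 7.5) held 10 μM ATP, 5 nM each ATG3-GST and Flag-Gabarap, and 0.15 nM human His-ATG7. Values are IC50 or percent inhibition at one concentration.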
(TR-FRET usually uses a lanthanide donor and a delayed reading to cut background.)

recombinant human His-ATG7 enzyme, sequence (O95352 whole entry): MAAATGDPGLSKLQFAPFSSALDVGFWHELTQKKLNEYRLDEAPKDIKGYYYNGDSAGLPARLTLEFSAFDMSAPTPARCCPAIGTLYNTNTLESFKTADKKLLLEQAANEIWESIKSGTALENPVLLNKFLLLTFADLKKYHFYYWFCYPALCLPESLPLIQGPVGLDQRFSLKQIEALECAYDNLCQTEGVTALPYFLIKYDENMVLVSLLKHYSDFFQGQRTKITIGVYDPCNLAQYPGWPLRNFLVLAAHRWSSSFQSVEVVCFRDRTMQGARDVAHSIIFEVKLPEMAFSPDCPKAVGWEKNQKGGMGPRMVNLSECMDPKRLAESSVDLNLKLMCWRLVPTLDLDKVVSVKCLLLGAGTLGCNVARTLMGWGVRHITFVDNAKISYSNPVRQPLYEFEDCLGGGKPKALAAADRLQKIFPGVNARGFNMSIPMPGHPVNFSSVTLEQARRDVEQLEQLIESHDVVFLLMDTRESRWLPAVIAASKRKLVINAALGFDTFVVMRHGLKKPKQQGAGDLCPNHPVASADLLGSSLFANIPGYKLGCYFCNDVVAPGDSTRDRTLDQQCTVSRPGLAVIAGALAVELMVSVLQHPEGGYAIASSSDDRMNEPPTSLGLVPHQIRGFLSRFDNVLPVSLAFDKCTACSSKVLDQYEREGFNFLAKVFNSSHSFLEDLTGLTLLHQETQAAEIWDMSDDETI

As usually defined, the IC50 is the concentration needed to halve the response being measured. A word on the inhibition: it is the percentage by which the read-out fell short of the control. On to `CC(C)Sc1nn([C@H]2C[C@H](O)[C@H](COS(N)(=O)=O)O2)c2ncnc(N)c12` [Compound I-220, {(2S,3S,5R)-5-[4-amino-3-(isopropylsulfanyl)-1H-pyrazolo[3,4-d]pyrimidin-1-yl]-3-hydroxytetrahydrofuran-2-yl}methyl sulfamate], for which the IC50 is 50 to 100 nM. Moreover, where the note is “Concentration 0.111 μM”, the inhibition at 0.111 µM came to 65%.
With `Nc1ncnc2c1c(SCC1=CCCCC1)nn2[C@@H]1O[C@H](COS(N)(=O)=O)[C@@H](O)[C@H]1O` [Compound I-91, [(2R,3S,4R,5R)-5-{4-amino-3-[(cyclohex-1-en-1-ylmethyl)sulfanyl]-1H-pyrazolo[3,4-d]pyrimidin-1-yl}-3,4-dihydroxytetrahydrofuran-2-yl]methyl Sulfamate], the IC50 was 20 to 50 nM. Further, the inhibition at 0.123 µM (Concentration 0.123 μM) stood at 76%.
For the compound `Nc1ncnc2c1c(Sc1c[nH]c3ccccc13)nn2[C@H]1C[C@H](O)[C@@H](COS(N)(=O)=O)O1` [Compound I-170, {(2R,3S,5R)-5-[4-amino-3-(1H-indol-3-ylsulfanyl)-1H-pyrazolo[3,4-d]pyrimidin-1-yl]-3-hydroxytetrahydrofuran-2-yl}methyl sulfamate], the half-maximal inhibitory concentration (IC50) fell in the range of 100 to 500 nM. Also, the inhibition at 0.111 µM (Concentration 0.111 μM) was found to be 50%.
Regarding `CCC(C)Sc1nn([C@@H]2O[C@H](COS(N)(=O)=O)[C@@H](O)[C@@H]2F)c2ncnc(N)c12` (single isomer, unassigned) [Compound I-136a], the half-inhibitory concentration (IC50) was 50 to 100 nM. Moreover, the “Percent Inhibition” value (Concentration 0.111 μM) came out at 63%.
For the compound `CC(C)Oc1ccc(Sc2nn([C@H]3C[C@H](O)[C@@H](COS(N)(=O)=O)O3)c3ncnc(N)c23)cc1` [Compound I-184, [(2R,3S,5R)-5-{4-amino-3-[(4-isopropoxyphenyl)sulfanyl]-1H-pyrazolo[3,4-d]pyrimidin-1-yl}-3-hydroxytetrahydrofuran-2-yl]methyl sulfamate], the IC50 lay within 50 to 100 nM. Also, the inhibition at 0.111 µM (Concentration 0.111 μM) amounted to 64%.
For `Nc1ncnc2c1c(SCc1cccc(F)c1)nn2[C@@H]1O[C@H](COS(N)(=O)=O)[C@@H](O)[C@H]1O` [Compound I-44, [(2R,3S,4R,5R)-5-{4-amino-3-[(3-fluorobenzyl)sulfanyl]-1H-pyrazolo[3,4-d]pyrimidin-1-yl}-3,4-dihydroxytetrahydrofuran-2-yl]methyl sulfamate], the IC50 was 20 to 50 nM. For the setting “Concentration 0.123 μM”, the inhibition at 0.123 µM turned out to be 84%.
With `CC(O)c1nn([C@@H]2O[C@H](COS(N)(=O)=O)[C@@H](O)[C@H]2O)c2ncnc(N)c12` (single isomer, unassigned) [Compound I-23a, [(2R,3S,4R,5R)-5-{4-amino-3-[(1R)-1-hydroxyethyl]-1H-pyrazolo[3,4-d]pyrimidin-1-yl}-3,4-dihydroxytetrahydrofuran-2-yl]methyl sulfamate or [(2R,3S,4R,5R)-5-{4-amino-3-[(1S)-1-hydroxyethyl]-1H-pyrazolo[3,4-d]pyrimidin-1-yl}-3,4-dihydroxytetrahydrofuran-2-yl]methyl Sulfamate], the IC50 was above 500 nM. The “Percent Inhibition” value (Concentration 0.123 μM) was 19%.
With `Nc1ncnc2c1c(SC1CCC1)nn2[C@@H]1O[C@H](COS(N)(=O)=O)[C@@H](O)[C@@H]1F` [Compound I-147, {(2R,3R,4S,5R)-5-[4-amino-3-(cyclobutylsulfanyl)-1H-pyrazolo[3,4-d]pyrimidin-1-yl]-4-fluoro-3-hydroxytetrahydrofuran-2-yl}methyl sulfamate], the IC50 was below 20 nM. In addition, the inhibition at 0.111 µM (Concentration 0.111 μM) was determined as 89%.
As to `CSc1nn([C@@H]2O[C@H](COS(N)(=O)=O)[C@@H](O)[C@@H]2F)c2ncnc(N)c12` [Compound I-115, {(2R,3R,4S,5R)-5-[4-amino-3-(methylsulfanyl)-1H-pyrazolo[3,4-d]pyrimidin-1-yl]-4-fluoro-3-hydroxytetrahydrofuran-2-yl}methyl Sulfamate], the concentration for half-maximal inhibition (IC50) was in the range of 20 to 50 nM. For the same compound, the inhibition at 0.123 µM (Concentration 0.123 μM) was 73%.
